In patent US5670506A, “Halogen, isothiocyanate or azide substituted xanthines” (Cell Therapeutics, Inc., priority 1993, dated 1997):

Legend:
Saccharomyces cervisiae = experiment: yeast growth inhibition; type: cell-based; conditions: FIG. 6
Protocol: This assay measures anti-yeast and anti-fungal activity of the drugs tested.
Some of the inventive compounds are effective for inhibiting yeast cell growth. This effect can be assayed by measuring growth of the yeast strain Saccharomyces cervisiae. A control yeast stain Saccharomyces cervisiae (BIO 101, Inc.) is grown overnight in YEPD broth at 30° C. An one to hundred dilution of the yeast culture is made with fresh YEPD broth. 100 μl Aliquots of the diluted culture are distributed into 96-wells titer plates. 100 μl Aliquots of drug is diluted in YEPD broth were then added to the wells. The titer plates are incubated at room temperature with continuous shaking. The cell density of the individual cultures are determined using a mircoplate reader with a A630 filter. The A630 of the individual yeast cultures are compared to control samples without adding drug. This assay is predictive of direct antimicrobial, particularly yeast and fungal, activity of the drugs studied.
This example illustrates the effects of CT2501R (a reference compound), CT1529, CT1589 and CT1519 (see Table 1 for chemical names) on yeast growth (Saccharomyces cervisiae) in the presence or absence of drug. This assays measures anti-yeast and anti-fungal activity of the drugs tested.

mast cells = experiment: mast cell degranulation, serotonin release assay; type: cell-based
Description: A serotonin release assay is utilized to study the utility of the inventive compounds for treatment of asthma and allergy. This assay measures mast cell degranulation, which is an early phase reaction to allergen challenge. Mast cells grown in tissue culture are first loaded with ^3 H serotonin, which is incorporated into the granules in the cells. The mast cells are sensitized with antigen specific monoclonal IgE, and then triggered to degranulate with the specific antigen (dinitrophenol bound to BSA (DNP)). When the cells degranulate, ^3 H Serotonin is released into the medium, and can be measured directly. The ability of the inventive compounds to inhibit the degranulation response is determined by the decrease in ^3 H Serotonin released in the presence of drug and is represented as % INHIBITION. The IC50 of any given compound is determined by the ability of that compound to inhibit degranulation by 50%.
Specifically, the serotonin release assay seeds 2×10^5 cells in 0.5 ml medium in duplicate for spontaneous release, IgE+DNP, IgE+DNP+EtOH (vehicle control), and inventive compounds. One μCi [^3H ]-Serotonin/ml (i.e., 0.5 μCi/well) (NEN Research Products, cat. #NET-398 Hydroxytryptamine Binoxalate, 5-[1,2-^3 H(N)]-(Serotonin Binoxalate, [1,2-^3 H(N)]-)) and 1 μl/ml IgE is added. The cells are incubated for 18 hours at 37° C. in 5% CO2, washed twice with 0.5 ml Isotonic Buffer (25 mM disodium PIPES pH 7.1,100 mM NaCl, 5 mM KCl, 5 mM glucose, 0.4 mM MgCl2, 1 mM CaCl2, 0.1% BSA), and sterile filtered. 250 μl Isotonic Buffer is added per well and the plates are equilibrated in an incubator for about 10 min. Drug is added and cells are activated with 40 ng/ml DNP-BSA (1 mg/ml Diluted 1:200 in Isotonic Buffer) for 45 minutes using 2 μl/250 μl. Spontaneous release is determined in incubated cells with 250 μl Isotonic Buffer for 45 minutes and the reaction is stopped by removing supernatant and centrifuging at ~4000 rpm in microfuge for 15 seconds to remove any detached cells. Released radiolableled serotonin is counted. To determine amount of ^3 H-serotonin incorporated into the cells, (a) remove Isotonic Buffer and lyse cells by adding 250 μl 1% Triton-X100 in PBS, (b) add to 5 ml scintillation fluid, (c) wash 2× with Triton/PBS, and (d) add washes to scintillation tube. Percent serotonin release is calculated by dividing the amount of released serotonin by the sum of incorporated plus released serotonin and correcting for spontaneous released serotonin. Compound inhibition is calculated by dividing the percent serotonin release in the presence of a compound by the percent serotonin release in the absence of the compound.
This assay is described above and provides an in vitro model for an allergy and asthma therapeutic compound.

Structure (SMILES): Cn1cnc2c1c(=O)n(CCCCC(=O)CCl)c(=O)n2C [CT1595, 1-(6-chloro-5-oxohexyl)-3,7-dimethylxanthine]
- yeast growth inhibition (Saccharomyces cervisiae): strongly inhibited yeast growth
- inhibition at 50 µM (mast cells; 50 μM): 44%
- inhibition at 100 µM (mast cells; 100 μM): 88%
